From US9862723B2, “Stable polymorph of the salt of (2R)-4-oxo-4-[3-(trifluoromethyl)-5,6-dihydro[1,2,4]triazolo[4,3-α]pyrazin-7(8H)-yl]-1-(2,4,5-trifluorophenyl)butan-2-anime with L-tartaric acid” (ZENTIVA k.s, priority 2013, dated 2018)

Test: Relative stability of the crystalline forms of sitagliptin L-tartrate (polymorph transformation on contamination/seeding with Form Z1)
Format: physicochemical
Conditions: for stability of the crystalline form (polymorph) relative to the other form: comparison of WO 2005/072530 crystalline form with Form Z1 of sitagliptin L-tartrate, further experiments
Text: When studying the properties of salts of (2R)-4-oxo-4-[3-(trifluoromethyl)-5,6-dihydro[1,2,4]triazolo[4,3-α]pyrazin-7(8H)-yl]-1-(2,4,5-trifluorophenyl)butan-2-amine (sitagliptin), a quite new polymorph (Form Z1) of the salt of (2R)-4-oxo-4-[3-(trifluoromethyl)-5,6-dihydro[1,2,4]triazolo[4,3-α]pyrazin-7(8H)-yl]-1-(2,4,5-trifluorophenyl)butan-2-amine (sitagliptin) with L-tartaric acid has been successfully obtained, characterized by the following reflections in the X-ray powder pattern: 5.9; 9.8; 14.2; 19.5; 23.8 and 26.2±0.2° 2-theta.
Preparation of the Salt of (2R)-4-oxo-4-[3-(trifluoromethyl)-5,6-dihydro[1,2,4]triazolo[4,3-α]pyrazin-7(8H)-yl]-1-(2,4,5-trifluorophenyl)butan-2-amine with L-tartaric acid (Mixture of Forms) The salt of (2R)-4-oxo-4-[3-(trifluoromethyl)-5,6-dihydro[1,2,4]triazolo[4,3-α]pyrazin-7(8H)-yl]-1-(2,4,5-trifluorophenyl)butan-2-amine (sitagliptin) with L-tartaric acid, prepared in accordance with Example 1 (according to WO 2005/072530) (2 g) was suspended in propan-2-ol (50 ml) and the suspension was heated up to 50° C. under constant agitation. The polymorph Z1 (0.1 g) prepared in accordance with Example 2 was added to the white suspension. The mixture was agitated at the same temperature for 20 minutes and after cooling to 20° C. the product was filtered off and washed with a small amount of propan-2-ol. The obtained product was dried in a vacuum drier at 40° C. 1.9 g of a mixture of forms was obtained, Form Z1 being enriched considerably.

Compound	stability of the crystalline form (polymorph) relative to the other form	transformation of the original polymorph to Form Z1 (inconsiderable contamination by Form Z1, even under the conditions in which the original crystalline form is prepared)
N[C@@H](CC(=O)N1CCn2c(nnc2C(F)(F)F)C1)Cc1cc(F)c(F)cc1F.O=C(O)C(O)C(O)C(=O)O [Form Z1, salt of (2R)-4-oxo-4-[3-(trifluoromethyl)-5,6-dihydro[1,2,4]triazolo[4,3-α]pyrazin-7(8H)-yl]-1-(2,4,5-trifluorophenyl)butan-2-amine (sitagliptin) with L-tartaric acid]	more stable	
N[C@@H](CC(=O)N1CCn2c(nnc2C(F)(F)F)C1)Cc1cc(F)c(F)cc1F.O=C(O)C(O)C(O)C(=O)O [previously described crystalline form, Salt of (2R)-4-oxo-4-[3-(trifluoromethyl)-5,6-dihydro[1,2,4]triazolo[4,3-α]pyrazin-7(8H)-yl]-1-(2,4,5-trifluorophenyl)butan-2-amine with L-tartaric acid]	significantly less stable	very quick transformation
